Measurements reported in patent US20240025862A1, “SUBSTITUTED N-PHENYLURACILS AND SALTS THEREOF, AND USE THEREOF AS HERBICIDAL ACTIVE SUBSTANCES” (Bayer Aktiengesellschaft, priority 2020, published 2024).
One block for each molecule: values may come before it.

Tests used:
Assay type in all cases: in vivo
[1] = tested on: Abutilon theophrasti (ABUTH); test: Post-emergence herbicidal action, greenhouse pot test; settings: rated visually after about 3 weeks vs untreated controls, 100% = plants have died
How it was run: (§1)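 Activity was scored by eye about 3 weeks after treatment against untreated plants, where 100% means dead plants and 0% means no difference. Plants at the one-leaf stage received a foliar spray of WP or EC formulations in water plus 0.5% additive (600 l/ha, up to 20 g/ha). Plants were grown in sandy loam pots in a greenhouse for 2–3 weeks before spraying.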

[2] = tested on: Amaranthus retroflexus (AMARE); test: as above; settings: rated visually after about 3 weeks vs untreated controls, 100% = plants have died
How it was run: as §1

[3] = tested on: Pharbitis purpurea (PHBPU); test: as above
How it was run: as §1

[4] = tested on: Polygonum convolvulus (POLCO); test: as above
How it was run: as §1

[5] = tested on: Stellaria media (STEME); test: as above
How it was run: as §1

[6] = tested on: Veronica persica (VERPE); test: as above
How it was run: as §1

[7] = tested on: Viola tricolor (VIOTR); test: as above
How it was run: as §1

[8] = tested on: Alopecurus myosuroides (ALOMY); test: Post-emergence herbicidal action, greenhouse pot test (also comparative test C)
How it was run: (§2)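 Greenhouse pot plants in sandy loam were sprayed post-emergence at the one-leaf stage (2–3 weeks after sowing) with WP or EC formulations plus 0.5% additive at 600 l/ha water. Activity was rated visually after about 3 weeks versus untreated controls (100% = dead, 0% = like control); rates were 20 g/ha or less, and 5 g/ha or less in the comparative test.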

[9] = tested on: Echinochloa crus-galli (ECHCG); test: as above
How it was run: as §2

[10] = tested on: Matricaria inodora (MATIN); test: as above
How it was run: as §2

[11] = tested on: Setaria viridis (SETVI); test: as above; settings: for Post-emergence action against SETVI: 20 g/ha
How it was run: as §2

[12] = tested on: Brassica napus (BRSNW); test: Post-emergence crop plant compatibility, greenhouse pot test; settings: 1.25 g/ha, vs untreated controls
How it was run: (§3)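 Greenhouse pot test; post-emergence foliar spray at one-leaf stage, WP or EC in water + 0.5% additive, 600 l/ha. Visual rating after ~3 wk, % relative to untreated (0–100%).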

[13] = tested on: Glycine max (GLXMA); test: as above
How it was run: as §3

[14] = tested on: Triticum aestivum (TRZAS); test: as above; settings: vs untreated controls
How it was run: as §3

[15] = tested on: Oryza sativa (ORYSA); test: Post-emergence crop plant compatibility, greenhouse pot test (also comparative test C); settings: for Post-emergence action against ORYSA (crop plant compatibility): vs untreated controls
How it was run: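 Visual damage versus untreated plants (0% = like control, 100% = plants died) was scored about 3 weeks after a post-emergence spray in greenhouse pots. Treatment: one-leaf stage, WP or EC in water at 600 l/ha with 0.5% additive; a/b/c mark different dosages on the same crop.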

[16] = tested on: Avena fatua (AVEFA); test: Post-emergence herbicidal action, greenhouse pot test; settings: 20 g/ha, rated visually after about 3 weeks vs untreated controls, 100% = plants have died
How it was run: as §1

[17] = tested on: Zea mays (ZEAMX); test: Post-emergence crop plant compatibility, greenhouse pot test; settings: 1.25 g/ha, vs untreated controls
How it was run: as §3

[18] = rated visually after about 3 weeks vs untreated controls, 100% = plants have died
[19] = application rate of 5 g or less per hectare, tables C1 to C4
[20] = comparative test C, application rate 1.25 g/ha

Post-emergence action against BRSNW (crop plant compatibility) [12]: 10%
Post-emergence action against GLXMA in % ([13]; 1.25 g/ha): 0%
Post-emergence action against GLXMA in % ([13]; 5 g/ha): 0%
Post-emergence action against GLXMA in % ([13]; 20 g/ha): 10%
Post-emergence action against TRZAS (crop plant compatibility) ([14]; 1.25 g/ha): 20%
Post-emergence action against TRZAS (crop plant compatibility) ([14]; 5 g/ha): 20%
Post-emergence action against ORYSA (crop plant compatibility) ([15]; 1.25 g/ha): 10%
Post-emergence action against ORYSA (crop plant compatibility) ([15]; 5 g/ha): 10%
Post-emergence action against ORYSA in % ([15]; 20 g/ha, crop plant compatibility): 20%
Structure (SMILES): CCOCCOC(=O)C(C)Oc1ccccc1Sc1cc(-n2c(=O)cc(C(F)(F)F)n(C)c2=O)c(F)cc1Cl (racemic) [I.2-2]
Post-emergence action at 1.25 g/ha against ABUTH in % [1]: 80%
Post-emergence action at 5 g/ha against ABUTH in % [1]: 100%
Post-emergence action at 20 g/ha against ABUTH in % [1]: 100%
Post-emergence action at 1.25 g/ha against AMARE in % [2]: 100%
Post-emergence action at 5 g/ha against AMARE in % [2]: 100%
Post-emergence action at 20 g/ha against AMARE in % [2]: 100%
Post-emergence action against PHBPU in % ([3]; dosage 1.25 g/ha): 100%
Post-emergence action against PHBPU in % ([3]; dosage 5 g/ha): 100%
Post-emergence action against PHBPU in % ([3]; dosage 20 g/ha): 100%
Post-emergence action against POLCO in % ([4]; dosage 5 g/ha): 100%
Post-emergence action against POLCO in % ([4]; dosage 20 g/ha): 100%
Post-emergence action against STEME ([5]; 5 g/ha): 100%
Post-emergence action against STEME ([5]; 20 g/ha): 100%
Post-emergence action against VERPE ([6]; 1.25 g/ha): 100%
Post-emergence action against VERPE ([6]; 5 g/ha): 100%
Post-emergence action against VERPE ([6]; 20 g/ha): 100%
Post-emergence action against VIOTR ([7]; 1.25 g/ha): 100%
Post-emergence action against VIOTR ([7]; 5 g/ha): 100%
Post-emergence action against VIOTR ([7]; 20 g/ha): 100%
Post-emergence action at 20 g/ha against ALOMY in % [8, 18]: 80%
Post-emergence action against ECHCG in % ([9]; dosage 20 g/ha): 90%
Post-emergence action against MATIN in % ([10]; dosage 5 g/ha): 80%
Post-emergence action against MATIN in % ([10]; dosage 20 g/ha): 100%
Post-emergence action against SETVI [11]: 100%
Post-emergence action against SETVI in % ([11]; dosage 1.25 g/ha): 100%
Post-emergence action against SETVI in % ([11]; dosage 5 g/ha): 100%

Post-emergence action against BRSNW (crop plant compatibility) [12]: 20%
Post-emergence action against TRZAS (crop plant compatibility) ([14]; 1.25 g/ha): 0%
Post-emergence action against ZEAMX (crop plant compatibility) [17]: 20%
Post-emergence action against ORYSA (crop plant compatibility) ([15]; 1.25 g/ha): 0%
compatibility with respect to the crop plant Oryza sativa (ORYSA) by comparison with literature compound a-17 / 3-14 ([15]; application rate of 1.25 g per hectare, table C5): distinct improvement in compatibility
ORYSA (efficacy in %) ([15]; comparative test C, application rate 1.25 g/ha, crop plant compatibility): 0%
Structure (SMILES): Cn1c(C(F)(F)F)cc(=O)n(-c2cc(Oc3ccccc3OCC(=O)OC3COC3)c(Cl)cc2F)c1=O [I.7-115]
Post-emergence action at 1.25 g/ha against ABUTH in % [1]: 80%
Post-emergence action at 5 g/ha against ABUTH in % [1]: 100%
Post-emergence action at 20 g/ha against ABUTH in % [1]: 100%
Post-emergence action at 1.25 g/ha against AMARE in % [2]: 100%
Post-emergence action at 5 g/ha against AMARE in % [2]: 100%
Post-emergence action at 20 g/ha against AMARE in % [2]: 100%
Post-emergence action at 20 g/ha against AVEFA in % [16]: 100%
Post-emergence action against PHBPU in % ([3]; dosage 1.25 g/ha): 100%
Post-emergence action against PHBPU in % ([3]; dosage 5 g/ha): 100%
Post-emergence action against PHBPU in % ([3]; dosage 20 g/ha): 100%
Post-emergence action against POLCO in % ([4]; dosage 5 g/ha): 100%
Post-emergence action against POLCO in % ([4]; dosage 20 g/ha): 100%
Post-emergence action against VERPE ([6]; 1.25 g/ha): 100%
Post-emergence action against VERPE ([6]; 5 g/ha): 100%
Post-emergence action against VERPE ([6]; 20 g/ha): 100%
Post-emergence action against VIOTR ([7]; 1.25 g/ha): 100%
Post-emergence action against VIOTR ([7]; 5 g/ha): 100%
Post-emergence action against VIOTR ([7]; 20 g/ha): 100%
Post-emergence action at 5 g/ha against ALOMY in % ([8]; 5 g/ha, rated visually after about 3 weeks vs untreated controls, 100% = plants have died): 100%
Post-emergence action at 20 g/ha against ALOMY in % [8, 18]: 100%
herbicidal efficacy against ALOMY by comparison with literature compound a-17 / 3-14 [8, 19]: distinct improvement in herbicidal efficacy
Post-emergence action at 1.25 g/ha against ECHCG in % ([9]; 1.25 g/ha, rated visually after about 3 weeks vs untreated controls, 100% = plants have died): 100%
herbicidal efficacy against ECHCG by comparison with literature compound a-17 / 3-14 [9, 19]: distinct improvement in herbicidal efficacy
ECHCG (efficacy in %) [9, 20]: 100%
Post-emergence action against ECHCG in % ([9]; dosage 5 g/ha): 100%
Post-emergence action against ECHCG in % ([9]; dosage 20 g/ha): 100%
herbicidal efficacy against MATIN by comparison with literature compound a-17 / 3-14 [10, 19]: distinct improvement in herbicidal efficacy
MATIN (efficacy in %) [10, 20]: 100%
Post-emergence action against MATIN in % ([10]; dosage 1.25 g/ha): 100%
Post-emergence action against MATIN in % ([10]; dosage 5 g/ha): 100%
Post-emergence action against MATIN in % ([10]; dosage 20 g/ha): 100%
Post-emergence action against SETVI [11]: 100%
herbicidal efficacy against SETVI by comparison with literature compound a-17 / 3-14 [11, 19]: distinct improvement in herbicidal efficacy
SETVI (efficacy in %) [11, 20]: 100%
Post-emergence action against SETVI in % ([11]; dosage 1.25 g/ha): 100%
Post-emergence action against SETVI in % ([11]; dosage 5 g/ha): 100%
